Reference: patent publication US11072634B2, “Inhibitors of transglutaminases” (Zedira GmbH, priority 2016, dated 2021)
Read-outs that look alike come from different tables or passages of the source. *1 amine or outer side, *2 acyl side, *3 side chain or, on linkers, in order; H or OH if unused. Where a SMILES comes first, the peptide text is derived from it. [ ]: non-standard residue; d: D form. The star is where a group is joined. X7 = O=C(CC[C@H](N[*:1])C(=O)[*:2])C(=O)NCc1ccccc1; X2 = CC(C)(C)NC(=O)C(=O)CC[C@H](N[*:1])C(=O)[*:2]; X4 = O=C(CC[C@H](N[*:1])C(=O)[*:2])C(=O)NC1CC1; Isonicotinoyl(3-COOH) = O=C(O)c1cnccc1C(=O)*; X6 = CCNC(=O)C(=O)CC[C@H](N[*:1])C(=O)[*:2]; X5 = NC(=O)C(=O)CC[C@H](N[*:1])C(=O)[*:2]; Pro(4-oxo) = O=C1CN[C@H](C(=O)O)C1; Chg = N[C@H](C(=O)O)C1CCCCC1; Tle = CC(C)(C)[C@H](N)C(=O)O; Nle = CCCC[C@H](N)C(=O)O; X3 = Cc1nc(C(=O)*)cs1

Assays:
[1] = molecular target: T1, recombinant human factor XIII A-subunit (rhFXIII-A, plasma transglutaminase) (Homo sapiens, UniProt P00488); experiment: Inhibition of rec. human coagulation factor XIII (fluorescence, Abz-NE(CAD-DNP)EQVSPLILLK-OH); type: biochemical
T1 construct: His6; purchased Zedira 1027 (so in the source); T027)
T1 sequence (P00488 39-732 limits assumed): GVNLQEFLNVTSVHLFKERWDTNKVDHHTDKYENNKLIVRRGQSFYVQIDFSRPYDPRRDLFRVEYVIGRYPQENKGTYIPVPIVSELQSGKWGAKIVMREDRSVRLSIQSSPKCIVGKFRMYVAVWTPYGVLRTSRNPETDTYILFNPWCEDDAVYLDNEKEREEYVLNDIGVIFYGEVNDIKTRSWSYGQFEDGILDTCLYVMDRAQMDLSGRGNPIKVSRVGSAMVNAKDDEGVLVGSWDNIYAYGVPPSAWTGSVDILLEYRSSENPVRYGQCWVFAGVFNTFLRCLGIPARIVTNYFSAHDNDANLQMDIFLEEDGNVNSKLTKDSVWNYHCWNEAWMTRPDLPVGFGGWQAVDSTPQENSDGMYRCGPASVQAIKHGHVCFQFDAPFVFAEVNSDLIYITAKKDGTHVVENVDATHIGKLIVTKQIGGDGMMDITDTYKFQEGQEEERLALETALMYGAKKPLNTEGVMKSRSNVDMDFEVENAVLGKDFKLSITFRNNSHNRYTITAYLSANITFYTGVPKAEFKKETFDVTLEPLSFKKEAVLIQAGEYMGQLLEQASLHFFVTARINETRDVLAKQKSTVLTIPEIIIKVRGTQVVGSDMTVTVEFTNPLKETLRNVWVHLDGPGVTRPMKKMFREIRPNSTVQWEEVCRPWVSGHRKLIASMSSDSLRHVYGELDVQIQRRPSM
Description: Method for Inhibition Studies of Rec. Human Coagulation Factor XIII (Plasma Transglutaminase, rhFXIII-A)
(§1) 50 μg lyophilized His-tagged recombinant human factor XIII A-subunit (His6-rhFXIII, Zedira product 1027) is reconstituted in H2O (volume depends on original volume before lyophilization) resulting in a buffer containing 20 mM Tris-HCl, 150 mM NaCl, 1 mM EDTA, 1 mM DTT, 189 mg/ml maltodextrin, pH=7.5. The rhFXIII stock solution is diluted in buffer (50 mM Tris-HCl, 7.5 mM CaCl2, 150 mM NaCl, pH=7.4) to give a working solution of 59 U/ml (based on the amine-incorporation activity measured using transglutaminase activity assay #1036 (Zedira GmbH), described below).
(§2) A 10 mM inhibitor stock solution is prepared in DMSO, and from this a serial 1:2-fold dilution series is prepared also in DMSO. Each of the initial dilutions is subsequently diluted 1:50-fold with buffer (50 mM Tris-HCl, 7.5 mM CaCl2, 150 mM NaCl, pH=7.4) to yield the final working dilutions containing 2% (v/v) DMSO.
(§3) 15 μl of inhibitor working dilution are added per well of a 96 well microtiter plate. As control, 15 μl of a 2% (v/v) DMSO solution prepared using the buffer mentioned above are added per well.
(§4) 480 μl of His6-rhFXIII working solution and 120 μl human alpha thrombin (0.5 NIH units/μl) are added to 10.8 ml assay buffer (50 mM Tris-HCl, 7.5 mM CaCl2, 150 mM NaCl, 5 mM DTT, 13.4 mM glycine methylester, 50 μM Abz-NE(CAD-DNP)EQVSPLILLK-OH, (Zedira product A101; patent No.: EP 1781807B1), pH=7.4). From this master-mix solution, 285 μl are added per well containing the inhibitor. Increase in fluorescence is measured using […] and λem=418 nm at 37° C. for 35 min. A slope of the increase in fluorescence between 20 and 30 min is calculated for determination of the IC50 value (inhibitor concentration at which 50% of the initial FXIII activity is blocked).
(§5) Analysis of enzymatic activity is performed by calculation of the slope of an increase in fluorescence intensity. IC50 values are calculated by plotting the enzymatic activity (as percentage from control containing 2% DMSO instead of inhibitor) against the inhibitor concentration. IC50 is defined as the inhibitor concentration blocking 50%) of initial enzyme activity.

TG2 = molecular target: T2, TG2 (Homo sapiens, UniProt P21980); experiment: FXIII assay format using TG2 instead of FXIII (selectivity of FXIIIa blockers); type: biochemical
T2 sequence (P21980 1-687): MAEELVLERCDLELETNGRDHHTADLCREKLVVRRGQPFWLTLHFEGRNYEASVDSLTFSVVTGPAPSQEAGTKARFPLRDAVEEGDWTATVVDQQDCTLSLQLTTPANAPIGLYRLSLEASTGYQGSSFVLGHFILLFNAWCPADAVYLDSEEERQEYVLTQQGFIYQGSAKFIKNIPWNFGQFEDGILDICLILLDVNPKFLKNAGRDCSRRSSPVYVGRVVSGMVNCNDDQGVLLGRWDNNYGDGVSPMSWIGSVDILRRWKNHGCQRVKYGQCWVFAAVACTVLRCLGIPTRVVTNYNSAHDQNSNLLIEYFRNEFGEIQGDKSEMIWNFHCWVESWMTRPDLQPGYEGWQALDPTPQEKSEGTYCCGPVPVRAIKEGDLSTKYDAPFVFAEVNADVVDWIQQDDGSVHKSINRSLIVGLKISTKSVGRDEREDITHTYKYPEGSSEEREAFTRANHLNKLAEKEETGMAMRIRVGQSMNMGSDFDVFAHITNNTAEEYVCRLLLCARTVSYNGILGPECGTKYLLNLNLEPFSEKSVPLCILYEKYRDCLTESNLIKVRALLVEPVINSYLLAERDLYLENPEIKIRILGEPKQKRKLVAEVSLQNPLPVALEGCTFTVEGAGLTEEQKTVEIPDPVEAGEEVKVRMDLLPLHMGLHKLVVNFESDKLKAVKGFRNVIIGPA
Description: as §1, §2, §3, §4
This assay was also used to determine selectivity of inhibitors preferentially blocking FXIIIa by using TG2 instead of FXIII.
as §5

[2] = Table 3, FXIII inhibitors, read-out: IC50 FXIII
[3] = Table 3, selectivity with respect to TG2, read-out: IC50 TG2

For `CC(C)(C)[C@H](NC(=O)[C@H](CCC(=O)C(N)=O)NC(=O)c1cnc(O)c([N+](=O)[O-])c1)C(=O)N1CCCCC1C(=O)N[C@H](C(=O)N[C@H](C(N)=O)C1CCCCC1)C1CCCCC1` (stereo in doubt) [Compound E09, (S)—N1-((S)-1-((R)-2-((S)-2-((S)-2-amino-1-cyclohexyl-2-oxoethylamino)-1-cyclohexyl-2-oxoethylcarbamoyl)piperidin-1-yl)-3,3-dimethyl-1-oxobutan-2-yl)-2-(6-hydroxy-5-nitronicotinamido)-5-oxohexanediamide], which IC50 [1] is on record?
Its IC50 is 150 nM.

What about the IC50 (TG2) of the same compound?
The IC50 was 100 nM.

For `CCCC[C@H](NC(=O)[C@H](CCC(=O)C(N)=O)NC(=O)[C@H](CC(=O)O)NC(C)=O)C(=O)N[C@@H](CCCC)C(=O)N[C@@H](CC(C)C)C(=O)N1CCC[C@H]1C(=O)N[C@@H](Cc1c[nH]c2ccccc12)C(=O)N1CCC[C@H]1C(=O)O` [Compound E08, (S)-1-((S)-2-((S)-1-((4R,7S,10S,13S,16S)-7-(4-amino-3,4-dioxobutyl)-10, -dibutyl-4-(carboxymethyl)-18-methyl-2,5,8,11,14-pentaoxo-3,6,9,12,15-pentaazanonadecanecarbonyl)pyrrolidine-2-carboxamido)-3-(1H-indol-3-yl)propanoyl)pyrrolidine-2-carboxylic acid] (Ac-D[X5][Nle][Nle]LPWP-OH), which IC50 [1, 2] is on record?
Its IC50 is 150 nM.

And the IC50 (TG2; [3])?
Its IC50 is 100 nM.

Which results are given for `CCCC(NC(=O)C1C2C(CN1C(=O)C(CC1CC1)NC(=O)C(CCC(=O)C(N)=O)NC(=O)c1cc(C(=O)O)cc([N+](=O)[O-])c1)C2(C)C)C(=O)N1CCCC1(C)C(=O)NC(C)COc1c(C)cccc1C` [Compound E10, 3-((2S)-6-amino-1-((2S)-3-cyclopropyl-1-((1R,2S)-2-((2S)-1-((2S)-2-(1-(2,6-dimethylphenoxy)propan-2-ylcarbamoyl)-2-methylpyrrolidin-1-yl)-1-oxopentan-2-ylcarbamoyl)-6,6-dimethyl-3-azabicyclo[3.1.0]hexan-3-yl)-1-oxopropan-2-ylamino)-1,5,6-trioxonexan-2-ylcarbamoyl)-5-nitrobenzoic acid]?
IC50 [1]: 150 nM; IC50 (TG2): 100 nM

`CCNC(=O)C(=O)CC[C@H](NC(=O)c1ccncc1C(=O)O)C(=O)N[C@H](C(=O)N1CC(=O)C[C@H]1C(=O)N[C@H](C(=O)N[C@H](C(N)=O)C1CCCCC1)C1CCCCC1)C(C)(C)C` [Compound E26, 4-((S)-1-((S)-1-((S)-2-((S)-2-((S)-2-amino-1-cyclohexyl-2-oxoethylamino)-1-cyclohexyl-2-oxoethylcarbamoyl)-4-oxopyrrolidin-1-yl)-3,3-dimethyl-1-oxobutan-2-ylamino)-6-(ethylamino)-1,5,6-trioxohexan-2-ylcarbamoyl)nicotinic acid] ({Isonicotinoyl(3-COOH)}-[X6][Tle][Pro(4-oxo)][Chg][Chg]-NH2) was tested. Which IC50 [1, 2] did it give?
Its IC50 is 320 nM.

What about the IC50 (TG2; [3]) of the same compound?
Its IC50 is 10800 nM.

Which IC50 [1, 2] does the source give for `CC(C)(C)[C@H](NC(=O)[C@H](CCC(=O)C(=O)NCc1ccccc1)NC(=O)c1ccncc1C(=O)O)C(=O)N1CC(=O)C[C@H]1C(=O)N[C@H](C(=O)N[C@H](C(N)=O)C1CCCCC1)C1CCCCC1` [Compound E29, 4-((S)-1-((S)-1-((S)-2-((S)-2-((S)-2-amino-1-cyclohexyl-2-oxoethylamino)-1-cyclohexyl-2-oxoethylcarbamoyl)-4-oxopyrrolidin-1-yl)-3,3-dimethyl-1-oxobutan-2-ylamino)-6-(benzylamino)-1,5,6-trioxohexan-2-ylcarbamoyl)nicotinic acid] ({Isonicotinoyl(3-COOH)}-[X7][Tle][Pro(4-oxo)][Chg][Chg]-NH2) here?
Its IC50 is 850 nM.

And the IC50 (TG2; [3])?
The IC50 was greater than 20000 nM.

With `CC(C)(C)NC(=O)C(=O)CC[C@H](NC(=O)c1ccncc1C(=O)O)C(=O)N[C@H](C(=O)N1CC(=O)C[C@H]1C(=O)N[C@H](C(=O)N[C@H](C(N)=O)C1CCCCC1)C1CCCCC1)C(C)(C)C` [Compound E30, 4-((S)-1-((S)-1-((S)-2-((S)-2-((S)-2-amino-1-cyclohexyl-2-oxoethylamino)-1-cyclohexyl-2-oxoethylcarbamoyl)-4-oxopyrrolidin-1-yl)-3,3-dimethyl-1-oxobutan-2-ylamino)-6-(tert-butylamino)-1,5,6-trioxohexan-2-ylcarbamoyl)nicotinic acid] ({Isonicotinoyl(3-COOH)}-[X2][Tle][Pro(4-oxo)][Chg][Chg]-NH2) as the compound, how does the IC50 [1, 2] read?
The IC50 was 2900 nM.

And the IC50 (TG2; [3])?
Its IC50 is greater than 20000 nM.

With `CC(C)(C)[C@H](NC(=O)[C@H](CCC(=O)C(N)=O)NC(=O)c1ccncc1C(=O)O)C(=O)N1CC(=O)C[C@H]1C(=O)N[C@H](C(=O)N[C@H](C(N)=O)C1CCCCC1)C1CCCCC1` [Compound E31, 4-((S)-6-amino-1-((S)-1-((S)-2-((S)-2-((S)-2-amino-1-cyclohexyl-2-oxoethylamino)-1-cyclohexyl-2-oxoethylcarbamoyl)-4-oxopyrrolidin-1-yl)-3,3-dimethyl-1-oxobutan-2-ylamino)-1,5,6-trioxohexan-2-ylcarbamoyl)nicotinic acid] ({Isonicotinoyl(3-COOH)}-[X5][Tle][Pro(4-oxo)][Chg][Chg]-NH2) as the compound, how does the IC50 [1, 2] read?
The IC50 was 5000 nM.

What about the IC50 (TG2; [3]) of the same compound?
The IC50 was greater than 20000 nM.

`Cc1nc(C(=O)N[C@@H](CCC(=O)C(=O)NC2CC2)C(=O)N[C@H](C(=O)N2CC(=O)C[C@H]2C(=O)N[C@H](C(=O)N[C@H](C(N)=O)C2CCCCC2)C2CCCCC2)C(C)(C)C)cs1` [Compound E32, (S)—N1-((S)-1-((S)-2-((S)-2-((S)-2-amino-1-cyclohexyl-2-oxoethylamino)-1-cyclohexyl-2-oxoethylcarbamoyl)-4-oxopyrrolidin-1-yl)-3,3-dimethyl-1-oxobutan-2-yl)-N6-cyclopropyl-2-(2-methylthiazole-4-carboxamido)-5-oxohexanediamide] (X3-[X4][Tle][Pro(4-oxo)][Chg][Chg]-NH2) was tested. Which IC50 [1, 2] did it give?
The IC50 was 2650 nM.

And the IC50 (TG2; [3])?
The IC50 was 1000 nM.
